Experimental data: PubChem BioAssay (NCI)
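These data come from cells grown in 96-well plates and exposed to compound for 48 hours at five concentrations. GI50 is the concentration that inhibits growth by half. Definition used: TGI = concentration required for complete inhibition of growth.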

Columns and labels:
Assay in all cases: DTP human tumour cell line panel, 48 h
[1] = tested on: MOLT-4 leukemia
[2] = tested on: UACC-62 melanoma
[3] = tested on: SK-MEL-5 melanoma
[4] = tested on: RPMI-8226 leukemia
[5] = tested on: HOP-92 NSCLC
[6] = tested on: NCI-H23 lung
[7] = tested on: SF-295 CNS
[8] = tested on: SW-620 colon
[9] = tested on: NCI-H460 lung
[10] = tested on: HCC-2998 colon

Row | Structure (SMILES) | GI50 [1] | TGI [1] | GI50 [2] | TGI [2] | GI50 [3] | TGI [3] | GI50 [4] | TGI [4] | GI50 [5] | TGI [5] | GI50 [6] | TGI [6] | GI50 [7] | TGI [7] | GI50 [8] | TGI [8] | GI50 [9] | TGI [9] | TGI [10] | GI50 [10]
1 | Oc1cn(-c2ccc(Cl)cc2)nc1-c1n[nH]c(=S)n1-c1ccc(F)cc1 | 14.7 µM | > 100 µM | 12 µM | 28 µM | 14.3 µM | 35.9 µM | 22.2 µM | > 100 µM | 32.2 µM | > 100 µM | 15.7 µM | 33 µM | 14.8 µM | 66.9 µM | 22.8 µM | 78.3 µM | 11.9 µM | 40.8 µM |  | 
2 | CC(C)(C)OC(=O)N[C@H]1CC(=O)c2ccccc2N(CC(=O)O)C1=O |  | > 100 µM |  | > 100 µM |  | > 100 µM |  |  |  | > 100 µM |  | > 100 µM |  | > 100 µM |  | > 100 µM |  | > 100 µM | > 100 µM | 
3 | CN(C)C1C(=O)C(C(N)=O)=C(O)C2(O)C(=O)C3=C(O)c4c(O)cccc4C(C)(O)C3CC12.[Cl][Sb]([Cl])[Cl] (centres undefined) | 3.91 µM | 11 µM | 2.55 µM | 7.45 µM | 1.78 µM | 4.36 µM | 2.41 µM | 5.85 µM | 2.56 µM | 7.61 µM | 3.3 µM | 12.2 µM |  |  | 4.01 µM | 16.5 µM | 3.27 µM | 12.3 µM | 14.1 µM | 3.57 µM
4 | O=C(CCCCN1CCN(CCCCC(=O)Nc2ccccc2C#C/C=C\C#Cc2ccccc2C(F)(F)F)CC1)Nc1ccccc1C#C/C=C\C#Cc1ccccc1C(F)(F)F | 8.55 µM | 27 µM | 11 µM | 22.8 µM | 9.26 µM | 16.9 µM | 7.46 µM | 19.1 µM | 4.14 µM | 11.5 µM | 13.8 µM | 38.9 µM | 19 µM | > 50 µM | 9.39 µM | 18.4 µM | 11.2 µM | 25.5 µM | 17.5 µM | 9.14 µM
5 | CC(C)(C)C1=NO[C@H]2[C@@H](NC(=O)c3ccccc3)CC[C@@H]12 |  | > 100 µM |  | > 100 µM |  | > 100 µM |  | > 100 µM |  | > 100 µM |  | > 100 µM |  | > 100 µM |  | > 100 µM |  | > 100 µM | > 100 µM | 
6 | Cc1ccc2ccc3c4ccccc4ccc3c2c1 | 21.2 µM | 57.6 µM | 21.8 µM | > 100 µM | 27.6 µM | 92.9 µM | 21 µM | 59.2 µM | 12.7 µM | 43.9 µM | 22.4 µM | 96.5 µM |  |  | 25.9 µM | > 100 µM | 26.3 µM | 76 µM | 43.2 µM | 20.8 µM
7 | N=C(N)n1cc(/C=N/N=C(N)N)cn1 |  | > 100 µM |  | > 100 µM |  | > 100 µM |  | > 100 µM |  | > 100 µM |  | > 100 µM |  | > 100 µM |  | > 100 µM |  | > 100 µM | > 100 µM | 
8 | N#Cc1c(-c2ccccc2)c(-c2ccccc2)cc2c(=O)c3ccc(Cl)cc3[nH]c12 |  | > 100 µM |  | > 100 µM |  |  |  | > 100 µM |  | > 100 µM |  | > 100 µM |  | > 100 µM |  | > 100 µM |  | > 100 µM | > 100 µM | 
9 | CCCC(O)[C@@]1(CC)CC(C)C(O)(C2(C)C[C@H](C)[C@@H](C(CC)C(=O)C(C)[C@@H](O)[C@H](C)C3OC(O)(C(CC)C(=O)O)[C@@H](C)C(O)C3CC)O2)O1 (some centres undefined) |  |  |  | 2.86 µM |  | 1.18 µM |  |  |  | 1.75 µM |  | 2.28 µM |  | 4.91 µM |  | 2.9 µM |  | 2.14 µM | 1.49 µM | 
10 | Cn1cc(-c2ccc3ncc(-c4ccc(CC(=O)Nc5cc(C(C)(C)C)nn5C)cc4)cc3c2)cn1 | 0.706 µM | 3.25 µM | 1.26 µM | 6.65 µM | 0.756 µM | 3 µM | 0.64 µM | 4.07 µM | 2.45 µM | > 20 µM | 1.1 µM | > 20 µM | 1.58 µM | > 20 µM | 1.67 µM | > 20 µM | 0.786 µM | > 20 µM | > 20 µM | 2.73 µM
11 | COc1ccc(/C=C/C(=O)c2c(-c3ccccc3)nn(C)c(=O)c2N2CCCCC2)cc1 |  | 23.1 µM |  | 44.8 µM |  | 29.1 µM |  | 31.8 µM |  | 16.8 µM |  | 50.7 µM |  | 44.4 µM |  | > 100 µM |  | 49.4 µM |  | 
